The values that follow are results of earlier work, collected in patent US20130004545A1, “SLOW RELEASE PHARMACEUTICAL COMPOSITIONS OF ILOPERIDONE” (LUPIN LIMITED, priority 2009, published 2013).

The conditions of data set [1]: for t1/2: metabolite of iloperidone.
The target of data set [2] is 5-HT2A receptors (Homo sapiens, UniProt P28223).
Data set [3] has as its system plasma proteins. The following applies: administered orally.

The structures appear in SMILES notation.

Chain of 5-HT2A receptors (P28223 whole entry): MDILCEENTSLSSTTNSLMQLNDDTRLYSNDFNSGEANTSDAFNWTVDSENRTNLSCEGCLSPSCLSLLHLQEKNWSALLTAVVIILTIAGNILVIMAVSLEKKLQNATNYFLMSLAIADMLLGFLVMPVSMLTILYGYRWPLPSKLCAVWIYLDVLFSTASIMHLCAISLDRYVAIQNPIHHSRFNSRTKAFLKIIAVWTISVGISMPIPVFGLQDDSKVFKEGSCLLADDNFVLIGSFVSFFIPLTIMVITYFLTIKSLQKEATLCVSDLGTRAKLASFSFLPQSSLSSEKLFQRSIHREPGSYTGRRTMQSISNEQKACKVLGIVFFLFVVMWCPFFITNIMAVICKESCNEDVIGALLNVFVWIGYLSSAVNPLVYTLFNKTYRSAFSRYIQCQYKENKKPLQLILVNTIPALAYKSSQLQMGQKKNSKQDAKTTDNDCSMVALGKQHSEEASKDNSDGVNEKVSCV

Turning to `COc1cc(C(C)O)ccc1OCCCN1CCC(c2noc3cc(F)ccc23)CC1` (stereo not drawn) [Example P88], the t1/2 in data set [1] is given as 25.6 h. Moreover, in data set [1] (metabolite plasma level, reported), the “Plasma level relative to Iloperidone” value was “approximately 1.5 times that of Iloperidone”. For the same compound, in data set [1] (metabolite, after oral administration of parent active ingredient), the tmax is given as 6 h.

Consider `COc1cc(C(=O)O)ccc1OCCCN1CCC(c2noc3cc(F)ccc23)CC1` [Example P95, 4-[3-[4-(6-fluoro-1,2,-benzisoxazol-3-yl)-1-piperidinyl]propoxy]-3-methoxy-benzoic acid], for which the receptor affinity entry in data set [2] is “affinity for only 5-HT2A receptors”. Moreover, in data set [1], the t1/2 was 25.6 h.

Consider `COc1cc(C(C)=O)ccc1OCCCN1CCC(c2noc3cc(F)ccc23)CC1` [Iloperidone], for which the “binding to plasma proteins” value in data set [3] was “highly bound to plasma proteins”.
